The results in this text go back to PubChem BioAssay AID248 (DTP/NCI, 2004).

“And” between values parts separate entries of the source, which are not always exact repeats. Equal values may be shown once. Inconclusive results and toxic doses are left out.

The assay has as its system L1210 leukemia ip in BDF1 mice, survival T/C. The experiment in a line: NCI In Vivo Anticancer Drug Screen. Data for tumor model L1210 Leukemia (intraperitoneal) in B6D2F1 (BDF1) mice. As to conditions: higher = longer survival. In short, it runs like this:
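Transplanted-tumor mice were given test agent; controls received vehicle only. Survival readings from the two groups were divided (treated over control).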

The mark [1] stands for this setting: endpoint: mean survival time, dose: 50.0 mg/kg/injection, schedule: Q01DX009 (ip), vehicle: saline with Tween-80.
Setting [2] is: endpoint: mean survival time, dose: 100.0 mg/kg/injection, schedule: Q01DX009 (ip), vehicle: saline with Tween-80.
The mark [3] stands for this setting: endpoint: mean survival time, dose: 200.0 mg/kg/injection, schedule: Q01DX009 (ip), vehicle: saline with Tween-80.
Where [4] appears, read: endpoint: mean survival time, dose: 50.0 mg/kg/injection, schedule: Q01DX001 (ip), vehicle: saline.
[5] abbreviates: endpoint: mean survival time, dose: 100.0 mg/kg/injection, schedule: Q01DX001 (ip), vehicle: saline.
The mark [6] stands for this setting: endpoint: mean survival time, dose: 200.0 mg/kg/injection, schedule: Q01DX001 (ip), vehicle: saline.
Setting [7] is: endpoint: mean survival time, dose: 400.0 mg/kg/injection, schedule: Q01DX001 (ip), vehicle: saline.
Setting [8] is: endpoint: mean survival time, dose: 100.0 mg/kg/injection, schedule: Q04DX002 (ip), vehicle: saline.
Where [9] appears, read: endpoint: mean survival time, dose: 50.0 mg/kg/injection, schedule: Q01DX001 (ip), vehicle: carboxymethylcellulose (CMC).
Where [10] appears, read: endpoint: mean survival time, dose: 100.0 mg/kg/injection, schedule: Q04DX003 (ip), vehicle: Klucel (hydroxypropylcellulose) (HPC).
The mark [11] stands for this setting: endpoint: mean survival time, dose: 200.0 mg/kg/injection, schedule: Q04DX003 (ip), vehicle: Klucel (hydroxypropylcellulose) (HPC).
[12] abbreviates: endpoint: mean survival time, dose: 100.0 mg/kg/injection, schedule: Q04DX003 (ip), vehicle: saline with Tween-80.
[13] abbreviates: endpoint: mean survival time, dose: 200.0 mg/kg/injection, schedule: Q04DX003 (ip), vehicle: saline with Tween-80.
The mark [14] stands for this setting: endpoint: mean survival time, dose: 400.0 mg/kg/injection, schedule: Q04DX003 (ip), vehicle: saline with Tween-80.
[15] abbreviates: endpoint: mean survival time, dose: 400.0 mg/kg/injection, schedule: Q01DX009 (ip), vehicle: saline with Tween-80.

Regarding `NC(=O)c1ccc(NCc2cnc3nc(N)nc(N)c3n2)cc1`, the T/C was 106 % of control (endpoint: mean survival time, dose: 20.0 mg/kg/injection, schedule: Q01DX009 (ip), vehicle: Klucel (hydroxypropylcellulose) (HPC)); 101 % of control (endpoint: mean survival time, dose: 40.0 mg/kg/injection, schedule: Q01DX009 (ip), vehicle: Klucel (hydroxypropylcellulose) (HPC)); 103 % of control (endpoint: mean survival time, dose: 80.0 mg/kg/injection, schedule: Q01DX009 (ip), vehicle: Klucel (hydroxypropylcellulose) (HPC)).
As for `C/C=C/CCCCC`, the T/C is, setting by setting: under setting [1], 102 % of control; under setting [2], 118 % of control; under setting [3], 94 % of control.
On to `COc1ccc(CN2CCCN(Cc3ccc(OC)cc3OC)C2c2ccc(N(C)C)cc2Cl)c(OC)c1`, for which the T/C is 97 % of control under setting [4], 101 % of control under setting [5], 95 % of control under setting [6] and 95 % of control under setting [7].
For the molecule `COC1C(NC(=O)N(CCCl)N=O)C(OC(C)=O)OC(COC(C)=O)C1OC(C)=O` (stereo unspecified), the T/C reads like this: (endpoint: mean survival time, dose: 1.8 mg/kg/injection, schedule: Q01DX001 (ip), vehicle: saline with Tween-80) 118 % of control; (endpoint: mean survival time, dose: 2.6 mg/kg/injection, schedule: Q01DX001 (ip), vehicle: saline with Tween-80) 181 % of control; (endpoint: mean survival time, dose: 4.0 mg/kg/injection, schedule: Q01DX001 (ip), vehicle: saline with Tween-80) 154 % of control; (endpoint: mean survival time, dose: 6.0 mg/kg/injection, schedule: Q01DX001 (ip), vehicle: saline with Tween-80) 259 % of control [middle of 4 runs]; (endpoint: mean survival time, dose: 9.0 mg/kg/injection, schedule: Q01DX001 (ip), vehicle: saline with Tween-80) 283 % of control and 162 % of control; (endpoint: mean survival time, dose: 13.0 mg/kg/injection, schedule: Q01DX001 (ip), vehicle: saline with Tween-80) 333 % of control and 232 % of control. The T/C by setting is: (endpoint: mean survival time, dose: 20.0 mg/kg/injection, schedule: Q01DX001 (ip), vehicle: saline with Tween-80) 155 % of control and 154 % of control; (endpoint: mean survival time, dose: 30.0 mg/kg/injection, schedule: Q01DX001 (ip), vehicle: saline with Tween-80) 86 % of control.
For the molecule `ClCCCCOCCl`, the T/C reads like this: under setting [1], 101 % of control; under setting [2], 97 % of control; under setting [3], 87 % of control.
With `Cc1ccc(C(=O)N/N=C/c2ccc(N(C)C)cc2Cl)cc1`, the T/C is 105 % of control under setting [8]; 108 % of control (endpoint: mean survival time, dose: 200.0 mg/kg/injection, schedule: Q04DX002 (ip), vehicle: saline); 105 % of control (endpoint: mean survival time, dose: 400.0 mg/kg/injection, schedule: Q04DX002 (ip), vehicle: saline).
On to `c1ccc(C2NC2c2ccccc2)cc1` (stereo unspecified), for which the T/C runs as follows: under setting [9], 112 % of control; (endpoint: mean survival time, dose: 100.0 mg/kg/injection, schedule: Q01DX001 (ip), vehicle: carboxymethylcellulose (CMC)) 97 % of control; under setting [10], 103 % of control; (endpoint: mean survival time, dose: 200.0 mg/kg/injection, schedule: Q01DX001 (ip), vehicle: carboxymethylcellulose (CMC)) 97 % of control; under setting [11], 95 % of control; (endpoint: mean survival time, dose: 400.0 mg/kg/injection, schedule: Q04DX003 (ip), vehicle: Klucel (hydroxypropylcellulose) (HPC)) 91 % of control.
As for `BrCC1OCCCO1`, the T/C runs as follows: (endpoint: mean survival time, dose: 25.0 mg/kg/injection, schedule: Q01DX009 (ip), vehicle: saline with Tween-80) 96 % of control; (endpoint: mean survival time, dose: 25.0 mg/kg/injection, schedule: Q04DX002 (ip), vehicle: saline) 100 % of control; (endpoint: mean survival time, dose: 50.0 mg/kg/injection, schedule: Q04DX002 (ip), vehicle: saline) 118 % of control; under setting [2], 114 % of control; (endpoint: mean survival time, dose: 100.0 mg/kg/injection, schedule: Q04DX002 (ip), vehicle: saline with Tween-80) 117 % of control; under setting [8], 100 % of control.
As to `CCC(=O)/C(=C\c1ccccc1Cl)C(C)=O`, the T/C is, setting by setting: under setting [12], 111 % of control; under setting [13], 117 % of control; under setting [14], 93 % of control.
As for `CCOC(=O)c1csc(/C=C/c2ccc([N+](=O)[O-])o2)n1`, the T/C is 89 % of control under setting [10] and 92 % of control under setting [11].
Take `COc1ccc(Cl)cc1NC(=O)c1ccc(Cl)cc1Cl`: the T/C under setting [2] is 96 % of control; the T/C under setting [12] was 98 % of control; the T/C under setting [3] is 94 % of control; the T/C under setting [13] was 93 % of control; the T/C under setting [15] is 102 % of control; the T/C under setting [14] is 97 % of control.
As to `C[C@]12CC[C@H](O)C[C@H]1CC[C@@H]1[C@@H]2CC[C@]2(C)[C@@H](C3=CC(=O)OC3)CC[C@]12O`, the T/C was 101 % of control under setting [9]; 98 % of control (endpoint: median survival time, dose: 2.0 mg/kg/injection, schedule: Q01DX005 (ip), vehicle: water); 98 % of control (endpoint: median survival time, dose: 4.0 mg/kg/injection, schedule: Q01DX005 (ip), vehicle: water); 103 % of control (endpoint: median survival time, dose: 8.0 mg/kg/injection, schedule: Q01DX005 (ip), vehicle: water).
Regarding `Cn1c(C(=O)O)cc2ccccc21`, the T/C (endpoint: mean survival time, dose: 100.0 mg/kg/injection, schedule: Q01DX009 (ip), vehicle: Klucel (hydroxypropylcellulose) (HPC)) was 110 % of control; the T/C (endpoint: mean survival time, dose: 200.0 mg/kg/injection, schedule: Q01DX009 (ip), vehicle: Klucel (hydroxypropylcellulose) (HPC)) was 112 % of control; the T/C (endpoint: mean survival time, dose: 400.0 mg/kg/injection, schedule: Q01DX009 (ip), vehicle: Klucel (hydroxypropylcellulose) (HPC)) was 96 % of control.
Turning to `[Cl][Hg][c]1cccs1`, the T/C runs as follows: (endpoint: mean survival time, dose: 12.5 mg/kg/injection, schedule: Q01DX009 (ip), vehicle: Klucel (hydroxypropylcellulose) (HPC)) 95 % of control; (endpoint: mean survival time, dose: 25.0 mg/kg/injection, schedule: Q01DX009 (ip), vehicle: Klucel (hydroxypropylcellulose) (HPC)) 93 % of control.
As to `CC(O)C(O)C(O)CO` (stereo unspecified), the T/C runs as follows: under setting [5], 96 % of control; under setting [6], 111 % of control; under setting [7], 94 % of control.
Turning to `CC[n+]1cccc(NC(=O)c2ccc(NC(=O)c3ccc(C(=O)Nc4ccc(C(=O)Nc5ccc[n+](CC)c5)cc4)cc3)cc2)c1`, the T/C is 110 % of control (endpoint: mean survival time, dose: 0.25 mg/kg/injection, schedule: Q01DX009 (ip), vehicle: saline); 115 % of control and 117 % of control (endpoint: mean survival time, dose: 4.0 mg/kg/injection, schedule: Q01DX001 (ip), vehicle: saline); 157 % of control and 160 % of control (endpoint: mean survival time, dose: 4.0 mg/kg/injection, schedule: Q01DX009 (ip), vehicle: saline); 120 % of control (endpoint: mean survival time, dose: 4.4 mg/kg/injection, schedule: Q01DX Z (ip), vehicle: carboxymethylcellulose (CMC)); 92 % of control (endpoint: mean survival time, dose: 6.7 mg/kg/injection, schedule: Q01DX Z (ip), vehicle: carboxymethylcellulose (CMC)); 228 % of control (endpoint: mean survival time, dose: 8.0 mg/kg/injection, schedule: Q01DX009 (ip), vehicle: saline). Also, the T/C by setting is: (endpoint: mean survival time, dose: 16.0 mg/kg/injection, schedule: Q01DX009 (ip), vehicle: saline) 121 % of control and 124 % of control; (endpoint: mean survival time, dose: 32.0 mg/kg/injection, schedule: Q01DX001 (ip), vehicle: saline) 189 % of control; (endpoint: mean survival time, dose: 64.0 mg/kg/injection, schedule: Q01DX001 (ip), vehicle: saline) 229 % of control.
`N#CC1C(=O)NC(=O)C(C#N)C12CCCC(C(F)(F)F)C2` (stereo unspecified): the T/C is 104 % of control under setting [4], 98 % of control under setting [5], 106 % of control under setting [6] and 98 % of control under setting [7].
`CCCCCCCCCCCCOCC[N+](C/C=C/c1ccccc1)(CCO)CCO`: the T/C is 93 % of control (endpoint: mean survival time, dose: 6.25 mg/kg/injection, schedule: Q01DX009 (ip), vehicle: saline with Tween-80) and 95 % of control (endpoint: mean survival time, dose: 12.5 mg/kg/injection, schedule: Q01DX009 (ip), vehicle: saline with Tween-80).
In the case of `O=C1C=CC[C@H](/C=C/c2ccccc2)O1`, the T/C is, setting by setting: (endpoint: mean survival time, dose: 50.0 mg/kg/injection, schedule: Q01DX001 (ip), vehicle: alcohol) 101 % of control; (endpoint: mean survival time, dose: 100.0 mg/kg/injection, schedule: Q01DX001 (ip), vehicle: alcohol) 103 % of control; (endpoint: mean survival time, dose: 200.0 mg/kg/injection, schedule: Q01DX001 (ip), vehicle: alcohol) 101 % of control; (endpoint: mean survival time, dose: 400.0 mg/kg/injection, schedule: Q01DX001 (ip), vehicle: alcohol) 107 % of control.
Regarding `CCOC(=O)CNC(=O)Nc1cccc(F)c1`, the T/C was 103 % of control under setting [2], 102 % of control under setting [3] and 96 % of control under setting [15].
